Measured values as given in US5574062A, “Coumarin derivative and use thereof” (Morinaga Milk Industry Co., Ltd., priority 1993, dated 1996).
Values joined by “and” are separate entries in the source; they are usually repeats but may differ in a detail not shown here. Identical values can stand only once. Like-named read-outs stand apart in the source and are kept apart here.

Columns and labels:
[1] = molecular target: T1, 5-lipoxygenase (Rattus norvegicus, UniProt P12527); assay: 5-lipoxygenase inhibition assay (RBL-1 supernatant, arachidonic acid, HPLC of 5-HETE); format: biochemical, rat (basophilic leukemia cells RBL-1, ATCC CRL1378)
T1 construct: host or cells: RBL-1 (rat basophilic leukemia cells)
T1 sequence (P12527 1-673): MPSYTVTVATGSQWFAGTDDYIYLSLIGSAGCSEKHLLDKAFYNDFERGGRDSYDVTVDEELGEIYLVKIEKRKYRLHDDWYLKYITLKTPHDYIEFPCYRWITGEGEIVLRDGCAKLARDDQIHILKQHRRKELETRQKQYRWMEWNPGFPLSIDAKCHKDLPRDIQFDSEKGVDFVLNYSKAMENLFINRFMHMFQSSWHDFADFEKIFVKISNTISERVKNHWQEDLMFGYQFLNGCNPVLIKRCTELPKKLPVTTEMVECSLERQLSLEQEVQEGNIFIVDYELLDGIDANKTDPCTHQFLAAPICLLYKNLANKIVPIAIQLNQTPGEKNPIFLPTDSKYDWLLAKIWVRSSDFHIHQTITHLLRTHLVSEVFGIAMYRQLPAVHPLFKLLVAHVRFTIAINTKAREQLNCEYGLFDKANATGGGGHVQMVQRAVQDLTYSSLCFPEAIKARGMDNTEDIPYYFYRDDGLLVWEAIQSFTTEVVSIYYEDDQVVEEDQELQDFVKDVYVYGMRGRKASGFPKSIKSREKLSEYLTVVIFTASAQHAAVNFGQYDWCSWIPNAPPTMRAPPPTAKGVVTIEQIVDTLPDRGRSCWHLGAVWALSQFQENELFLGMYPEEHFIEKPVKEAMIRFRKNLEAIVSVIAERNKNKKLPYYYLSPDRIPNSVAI
Description: Rat basophilic leukemia cells (RBL-1, ATCC CRL1378) were cultured in Dulbecco modified Eagle's medium containing 10% new-born bovine serum.
Cultured cells were collected and washed twice with a 50 mM Tris-buffered saline (containing 154 mM sodium chloride, pH: 7.4, hereinafter described as TBS). The cell suspension (4×10^7 cells/ml) was then sonicated and centrifuged at 10,000×g for 10 minutes.
The resultant supernatant was used to prepare an assay solution.
To an aliquot (15 μl) of the enzyme solution (40 mU/ml equivalent) was added 185 μl of TBS, 50 μl of a 2 mM adenosine triphosphate in TBS, 50 μl of a 12 mM calcium chloride in TBS, 1 μl of a 3 mM indomethacin in ethanol solution, 1 μl of an aqueous 300 mM reduced glutathione solution, and 3 μl of varied concentrated test compounds solution in ethanol. The resultant mixture was incubated at 37° C. for 5 minutes. Subsequently, 3 μl of a 2.5 mM arachidonic acid solution in ethanol was added to incubate the mixture for 2 minutes at 37° C. The reaction was ceased by the addition of 600 μl of methanol. After being centrifuged at 10,000×g for 5 minutes, 5-hydroxyeicosatetraenoic acid recovered in the supernatant was separated with a reverse phase high-performance liquid chromatography equipped with a C-18 column and measured the absorption of diene at 234 nm to quantify the activity of the enzyme.
Using the compounds of the present invention prepared in the same manner as in Examples 1-30, and Examples 33-36 as test samples and known baicalein (purchased from Wako Junyaku Kogyo) represented by the following formula 30 as a control: [drawing 34] the tests were performed for dose dependent inhibition to estimate IC50 values
It was prepared in the same method as in Test Example 2.
They were measured in the same method as in Test Example 2.

[2] = molecular target: T2, 12-lipoxygenase (Rattus norvegicus, UniProt F1LQ70); assay: 12-lipoxygenase inhibition assay (rat platelet supernatant, arachidonic acid, HPLC of 12-HETE); format: biochemical, Sprague Dawley male rat (platelets); conditions: for maximum inhibition ratio of 12-lipoxygenase / inhibition at 10 µM: at a compound concentration of 10^-5 M, IC50 not obtained; for maximum inhibition ratio of 12-lipoxygenase: 10 µM; for inhibition at 10 µM: read-out: maximum inhibition ratio of 12-lipoxygenase
T2 construct: The platelets were then sonicated at 4° C. and centrifuged at 100,000×g for 30 minutes to obtain a supernatant as a 12-lipoxygenase enzyme solution; from tissue; host or cells: Sprague Dawley rat platelets (from aortic blood), sonicated, 100,000 x g supernatant
T2 sequence (F1LQ70 1-663): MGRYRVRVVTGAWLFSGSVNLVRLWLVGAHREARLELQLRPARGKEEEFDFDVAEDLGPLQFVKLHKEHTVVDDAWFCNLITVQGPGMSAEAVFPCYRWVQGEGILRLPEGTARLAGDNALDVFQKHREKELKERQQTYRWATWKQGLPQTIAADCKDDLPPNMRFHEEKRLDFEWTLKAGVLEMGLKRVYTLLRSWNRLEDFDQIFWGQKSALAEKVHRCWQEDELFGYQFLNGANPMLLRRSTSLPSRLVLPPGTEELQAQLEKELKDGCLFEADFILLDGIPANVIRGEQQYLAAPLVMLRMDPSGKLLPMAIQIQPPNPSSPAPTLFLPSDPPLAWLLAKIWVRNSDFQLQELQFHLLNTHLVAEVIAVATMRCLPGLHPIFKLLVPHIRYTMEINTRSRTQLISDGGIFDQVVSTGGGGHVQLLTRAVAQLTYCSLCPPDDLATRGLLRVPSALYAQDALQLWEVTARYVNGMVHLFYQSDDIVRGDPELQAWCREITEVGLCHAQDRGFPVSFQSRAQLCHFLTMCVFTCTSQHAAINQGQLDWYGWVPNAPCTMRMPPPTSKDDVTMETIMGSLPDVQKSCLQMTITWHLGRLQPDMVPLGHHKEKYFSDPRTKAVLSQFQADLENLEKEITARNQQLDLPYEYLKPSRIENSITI
Description: A Sprague Dawley male rat was anesthetized with ether and bled from abdominal aorta using a syringe filled with about one-tenth volume of 3.8% sodium citrate. Blood was centrifuged at 180×g for 15 minutes at room temperature to pellet sanguineous platelet blood plasma. The resultant supernatant was again centrifuged at 1800×g for 10 minutes at 4° C. The pelleted platelets were rinsed twice with a washing buffer (50 mM Tris-hydrochloric acid buffer containing 154 mM sodium chloride and 2 mM EDTA, pH: 7.4). The platelets were then suspended in one-twentieth volume of a resuspension buffer (50 mM Tris-hydrochloric acid buffer containing 154 mM sodium chloride and 5.5 mM glucose, pH: 7.4). The platelets were then sonicated at 4° C. and centrifuged at 100,000×g for 30 minutes to obtain a supernatant as a 12-lipoxygenase enzyme solution.
The enzyme solution described above was diluted with the resuspension buffer above mentioned to prepare an assay solution so as to include about 2 mU/ml of 12-lipoxygenase. To an aliquot (300 μl) of the assay solution was added 1 μl of a 3 mM indomethacin-ethanol solution, 1 μl of an aqueous 300 mM reduced-glutathione solution, and 3 μl of varied concentrated test compounds solution in ethanol. The resultant mixture was incubated at 37° C. for 5 minutes. Subsequently, 3 μl of a 2.5 mM arachidonic acid solution in ethanol was added to incubate with for another 5 minutes at 37° C., then the reaction was ceased by the addition of 600 μl of methanol. After being centrifuged at 10,000×g for 5 minutes, 12-hydroxyeicosatetraenoic acid recovered in the supernatant was separated with a reverse phase high-performance liquid chromatography equipped with a C-18 column and measured the absorption of diene at 234 nm to quantify the activity of 12-lipoxygenase.
As test compounds were used the compounds of the present invention prepared in the same methods as in Example 4, Example 5 and Example 8 and the compounds prepared in the same methods as in Comparative Examples 1-5, and as a control was used esculetin (purchased from Tokyo Kasei), a known compound represented by the following formula: [drawing 33] and the test was conducted at varied concentrations.
The enzyme solution was prepared according to the same manner as in Test Example 1.
The inhibition assay was performed according to the same method as described in Test Example 1 except that the same samples used in measurement of the 5-lipoxygensase activity were used to estimate IC50 values. […]
They were measured in the same method as in Test Example 1.

[3] = Test Example 2, Table 2, read-out: IC50 value of 5-lipoxygenase
[4] = Test Example 2, Table 2, read-out: IC50 value of 12-lipoxygenase
[5] = Test Example 1, Table 1 and text, read-out: 12-lipoxygenase IC50 value
[6] = Test Example 3, Table 11, value belongs to the deacylated compound, read-out: 12-lipoxygenase inhibiting activities of deacylated compounds (IC50 values)
[7] = Test Example 5, Table 22, read-out: 5-Lipoxygenase inhibiting activity IC50 value
[8] = Test Example 5, Table 22, read-out: 12-Lipoxygenase inhibiting activity IC50 value

Compound | IC50 [1, 3] | IC50 [2, 4] | also measured
Cc1c(-c2ccc(Cl)cc2)c(=O)oc2cc(O)c(O)cc12 [Example 5, 3-(4-chlorophenyl)-4-methyl-6,7-dihydroxycoumarin] | 0.41 µM | 0.0092 µM | IC50 [2, 5]: 0.0092 µM; IC50 [2, 6]: 0.0092 µM
O=c1oc2c(O)c(O)ccc2cc1-c1ccc(O)cc1 [Comp. Example 5, reference compound] | – | – | 12-lipoxygenase inhibitory activity (in words) [2]: decreases greatly; IC50 [2, 5]: 1.1 µM
O=c1oc2cc(O)c(O)cc2cc1-c1ccccc1 [Example 6, 3-phenyl-6,7-dihydroxycoumarin] | 0.27 µM | 0.016 µM | –
O=c1oc2c(O)c(O)ccc2c(-c2ccccc2)c1-c1ccccc1 [Comp. Example 4, reference compound] | – | – | IC50 [2, 5]: 0.12 µM
O=c1oc2cc(O)c(O)cc2cc1-c1cccc(Cl)c1 [Example 9, 3-(3-chlorophenyl)-6,7-dihydroxycoumarin] | 0.16 µM | 0.0043 µM | IC50 [2, 6]: 0.0043 µM
Cc1cccc(-c2cc3cc(O)c(O)cc3oc2=O)c1 [Example 12] | 0.28 µM | 0.011 µM | –
O=c1oc2cc(O)c(O)cc2cc1-c1ccc2ccccc2c1 [Example 62] | – | – | IC50 [1, 7]: 0.065 µM; IC50 [2, 8]: 0.0046 µM
O=c1oc2c(O)c(O)ccc2cc1-c1ccc2ccccc2c1 [Example 61] | – | – | IC50 [1, 7]: 0.23 µM; IC50 [2, 8]: 0.034 µM
O=c1oc2cc(O)ccc2cc1-c1ccc(Cl)cc1 [Comp. Example 2, reference compound] | – | – | maximum inhibition ratio of 12-lipoxygenase ([2]; listed as Comparative Example 2, 10 µM): less than 10%; inhibition at 10 µM [2]: 7%
O=c1oc2cc(O)c(O)cc2cc1-c1csc2ccccc12 [Example 64] | – | – | IC50 [1, 7]: 0.18 µM; IC50 [2, 8]: 0.01 µM
O=c1oc2c(O)c(O)ccc2cc1-c1cccc(Cl)c1 [Example 22, 3-(3-chlorophenyl)-7,8-dihydroxycoumarin] | 0.27 µM | 0.0096 µM | IC50 [2, 6]: 0.0096 µM
O=c1oc2cc(O)c(O)cc2cc1-c1ccc(I)cc1 [Example 10, 3-(4-iodophenyl)-6,7-dihydroxycoumarin] | 0.14 µM | 0.0058 µM | IC50 [2, 6]: 0.0058 µM
CCc1ccc(-c2cc3ccc(O)c(O)c3oc2=O)cc1 [Example 19] | 0.25 µM | 0.014 µM | –
COc1ccc2cc(-c3ccccc3)c(=O)oc2c1OC [Comp. Example 1, reference compound] | – | – | maximum inhibition ratio of 12-lipoxygenase ([2]; listed as Comparative Example 1, 10 µM): less than 10%; inhibition at 10 µM [2]: 5%
O=c1oc2cc(O)c(O)cc2cc1-c1ccc(Cl)cc1 [Example 8, 3-(4-chlorophenyl)-6,7-dihydroxycoumarin] | 0.26 µM | 0.007 µM | IC50 [2, 5]: 0.007 µM and ~0.001 µM; IC50 [2, 6]: 0.007 µM
O=c1oc2c(O)c(O)ccc2cc1-c1csc2ccccc12 [Example 63] | – | – | IC50 [1, 7]: 0.19 µM; IC50 [2, 8]: 0.011 µM

Now from value to compound, other results behind:

IC50 [1, 3] | IC50 [2, 4] | Compound | also measured
0.33 µM | 0.021 µM | O=c1oc2cc(O)c(O)cc2cc1-c1cccs1 [Example 15, 3-(thiophen-2-yl)-6,7-dihydroxycoumarin] | –
0.42 µM | 0.022 µM | O=c1oc2cc(O)c(O)cc2cc1-c1ccsc1 [Example 16] | –
0.25 µM | 0.014 µM | Cc1ccc(-c2cc3cc(O)c(O)cc3oc2=O)o1 [Example 36, 3-(5-methylfuran-2-yl)-6,7-dihydroxycoumarin] | –
0.19 µM | 0.0044 µM | O=c1oc2cc(O)c(O)cc2cc1-c1ccc(Br)cc1 [Example 1] | –
0.48 µM | 0.0076 µM | O=c1oc2c(O)c(O)ccc2cc1-c1ccc(Cl)cc1 [Example 4, 3-(4-chlorophenyl)-7,8-dihydroxycoumarin] | IC50 [2, 5]: 0.0076 µM and ~0.001 µM; IC50 [2, 6]: 0.0076 µM
0.18 µM | 0.011 µM | Cc1ccc(-c2cc3cc(O)c(O)cc3oc2=O)cc1 [Example 11] | –
0.42 µM | 0.013 µM | O=c1oc2c(O)c(O)ccc2cc1-c1ccc(Br)cc1 [Example 25, 3-(4-bromophenyl)-7,8-dihydroxycoumarin] | –
0.34 µM | 0.015 µM | Cc1ccc(-c2cc3ccc(O)c(O)c3oc2=O)o1 [Example 35] | –
0.4 µM | 0.008 µM | O=c1oc2cc(O)c(O)cc2cc1-c1ccc(F)cc1 [Example 7] | –
0.36 µM | 0.012 µM | O=c1oc2c(O)c(O)ccc2cc1-c1cc(Br)cs1 [Example 33, 3-(4-bromothiophen-2-yl)-7,8-dihydroxycoumarin] | –
0.53 µM | 0.034 µM | O=c1oc2c(O)c(O)ccc2cc1-c1ccc([N+](=O)[O-])cc1 [Example 23, 3-(4-nitrophenyl)-7,8-dihydroxycoumarin] | –
